Reference: US9296720B2, “Carboxamide-substituted heteroaryl-pyrazoles and the use thereof” (AiCuris GmbH & Co. KG, priority 2011, dated 2016)
Where two headings read alike, the source gives them in different places.

Columns and labels:
[1] = molecular target: T1, reverse transcriptase (Human immunodeficiency virus type 1 group M subtype B, UniProt P04585); assay: Biochemical reverse transcriptase assay (Reverse Transcriptase Assay, colorimetric, Roche); details: colorimetric RT assay, DMSO 1%
T1 construct: negative control (batch without reverse transcriptase); purchased Roche Diagnostics GmbH, Mannheim, Germany
Protocol: The “Reverse Transcriptase Assay, colorimetric” (Roche Diagnostics GmbH, Mannheim, Germany) is used according to manufacturers' instructions. The test substances are dissolved in DMSO and used in diluted form in the test in the five steps (DMSO final concentration: 1%). The resulting values of the photometric analysis (405/492 nm) are smaller than 0.1 in the negative control (batch without reverse transcriptase) and are in the range of 1.5 in the positive control (batch without test substance). The IC50 values of the test substances are determined as the concentration of the test substance dilution, in which the measured optical density is 50% of the positive control.

[2] = test system: HIV-1NL4-3 Wild Type; assay: Luminescence reduction assay, MT4 cells infected with HIV-1NL4-3 luciferase reporter virus, wild type; type: cell-based; details: 2% FCS
How it was run: (§1)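 MT4 cells pellet-infected 2 h at 37° C with HIV-1NL4-3 reporter virus (lu164 replacing nef; wild type or site-directed RT mutants), washed, then incubated with compound dilutions (1% DMSO, 2% or 10% FCS) for 5 days. Secreted luciferase read with coelenterazine buffer; EC50 = concentration halving RLU versus untreated infected cells.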

[3] = test system: HIV-1NL4-3 K103N-Y181C; assay: Luminescence reduction assay, MT4 cells infected with HIV-1NL4-3 luciferase reporter virus, RT mutant K103N-Y181C; type: cell-based
How it was run: as §1

[4] = test system: HIV-1LAI Wild Type; assay: AlamarBlue viability assay, HIV-1LAI-infected MT4 cells; type: cell-based; details: 10% FCS
How it was run: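 MT4 cells infected with HIV-1LAI (MOI 0.01, supernatant infection) cultured 5 days at 37 °C with compounds in RPMI with 2% or 10% FCS, 1% DMSO final. AlamarBlue fluorescence after 3 h; EC50 as 50% protection relative to uninfected cells, CC50 from high-concentration cytotoxicity.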

[5] = Human immunodeficiency virus 1, MT4, MT4 cells
[6] = Human immunodeficiency virus 1, MT4, read-out: EC50 (μM) MT4 Cells HIV-1NL4-3 K103N-Y181C 2% FCS, MT4 cells, HIV-1NL4-3 K103N-Y181C, 2% FCS

SMILES	IC50 [1] [nM]	EC50 [2, 5] [µM]	EC50 [3, 6] [µM]	EC50 [4, 5] [µM]	EC50 ([2]; MT4 cells) [µM]	EC50 ([3]; read-out: EC50 (μM) MT4 Cells HIV-1NL4-3 K103N-Y181C 2% FCS, MT4 cells, HIV-1NL4-3 K103N-Y181C, 2% FCS) [µM]	EC50 ([4]; MT4 cells) [µM]
O=C(c1cc(-c2cc(Cl)cc(OC(F)F)c2)n(-c2cccnc2)n1)N1CCS(=O)(=O)C1 [Example 83, {5-[3-Chloro-5-(difluoromethoxy)phenyl]-1-(pyridin-3-yl)-1H-pyrazol-3-yl}(1,1-dioxido-1,3-thiazolidin-3-yl)methanone]	65	0.008	0.168	0.089	–	–	–
O=C1CN(C(=O)c2cc(-c3cc(Br)cc(OC(F)(F)F)c3)n(-c3ccnc(Cl)c3)n2)CCN1 [Example 49, 4-({5-[3-Bromo-5-(trifluoromethoxy)phenyl]-1-(2-chloropyridin-4-yl)-1H-pyrazol-3-yl}carbonyl)piperazin-2-one]	758	0.008	0.038	0.23	–	–	–
O=C1CN(C(=O)c2cc(-c3cc(Br)cc(OC(F)(F)F)c3)n(-c3cccnc3)n2)CN1 [Example 28, 1-({5-[3-Bromo-5-(trifluoromethoxy)phenyl]-1-(pyridin-3-yl)-1H-pyrazol-3-yl}carbonyl)imidazolidin-4-one]	213	0.005	0.005	0.044	–	–	–
O=C1CN(C(=O)c2cc(-c3cc(F)cc(OC(F)(F)F)c3)n(-c3cccnc3)n2)CCN1 [Example 58]	56	0.204	1.09	0.955	–	–	–
O=C(c1cc(-c2cc(Br)cc(OC(F)(F)F)c2)n(-c2ccnc(C(F)(F)F)c2)n1)N1CCSC1 [Example 117, {5-[3-Bromo-5-(trifluoromethoxy)phenyl]-1-[2-(trifluoromethyl)pyridin-4-yl]-1H-pyrazol-3-yl}(1,3-thiazolidin-3-yl)methanone]	–	1.28	≥ 3.3	> 3.3	–	–	–
O=C(c1cc(-c2cc(F)cc(OC(F)(F)F)c2)n(-c2cccnc2)n1)N1CC[S+]([O-])C1 (racemic) [Example 60-2, {5-[3-Fluoro-5-(trifluoromethoxy)phenyl]-1-(pyridin-3-yl)-1H-pyrazol-3-yl}(1-oxido-1,3-thiazolidin-3-yl)methanone]	–	–	–	–	0.084	0.446	0.797
O=C1CN(C(=O)c2cc(-c3cncc(F)c3)n(-c3ccc(F)c(Cl)c3)n2)CCN1 [Example 99, 4-{[1-(3-Chloro-4-fluorophenyl)-5-(5-fluoropyridin-3-yl)-1H-pyrazol-3-yl]carbonyl}piperazin-2-one]	–	0.113	1.31	0.258	–	–	–
